# Experimental data reported in US11578051B2, “Thiophene carboxamide derivative and plant disease control agent comprising same” (KOREA RESEARCH INSTITUTE OF CHEMICAL TECHNOLOGY, priority 2018, dated 2023).
# Assays:
# Type in all cases: in vivo
# [1] = system: cucumber powdery mildew pathogen (Sphaerotheca fusca); assay: Cucumber powdery mildew control effect test; conditions: treatment concentration 10 ppm, as in Experimental Example 3
# Procedure: A predetermined amount of the present compound corresponding to the test concentration was dissolved in 10% acetone and then was sprayed to foliage in a single leafy cucumber (variety: Baekdadagi) grown in a circular pot (6×7 cm, diameter×height). One day after application, the Cucumber plants were inoculated by spraying a spore suspension prepared with spores obtained from cucumber leaves infected with cucumber powdery mildew pathogen (Sphaerotheca fusca). After an incubation period of 1 day at 20° C. humid conditions, the plants were kept in a chamber for 12 days at a constant temperature and humidity under constant light conditions. After 13 days of the compound treatment, the disease incidence was assessed according to equation (1) of Experimental Example 1, and the control value was determined according to the criteria of Experimental Example 1. Compound No. 1 and the following four compounds as a comparative control compound were evaluated for controlling cucumber powdery mildew as described in Experimental Example 3.
# [2] = system: rice sheath blight pathogen (Rhizoctonia solani); assay: Rice sheath blight control effect test; conditions: rice (Chucheongbyeo), foliar spray, active ingredient 200 ppm, spraying dose 30 mL, assessed 5 days after treatment
# Procedure: A predetermined amount of the present compound corresponding to the test concentration was dissolved in 10% acetone and then was sprayed to foliage in the 5-leaf stage rice (variety: Chucheongbyeo) grown in a circular pot (6×7 cm, diameter×height). One day after application, the rice plants were inoculated by spraying a mycelial suspension of a culture of rice sheath blight pathogen (Rhizoctonia solani) obtained by culturing in a rice bran culture medium and incubated to induce disease development for 5 days under a humid condition at 30° C. After 5 days of the compound treatment, the disease incidence was assessed according to the equation (1) of Experimental Example 1, and the control value was determined according to the criteria of Experimental Example 1.
# [3] = system: cucumber sclerotinia pathogen (Sclerotinia sclerotiorum); assay: Cucumber sclerotinia disease control effect test; conditions: cucumber (Baekdadagi), foliar spray, active ingredient 200 ppm, spraying dose 30 mL, assessed 4 days after treatment
# Procedure: A predetermined amount of the present compound corresponding to the test concentration was dissolved in 10% acetone and then was sprayed to foliage in a single leafy cucumber (cultivar: Baekdadagi) grown in a circular pot (6×7 cm, diameter×height). One day after application, the Cucumber plants were inoculated by spraying a mycelial suspension of a liquid culture of cucumber sclerotinia pathogen (Sclerotinia sclerotiorum) and incubated for 4 days under constant light conditions and high humidity conditions at 25° C. to induce disease development. Four days after the compound treatment, the disease incidence was assessed according to equation (1) of Experimental Example 1, and the control value was determined according to the criteria of Experimental Example 1.
SMILES,Activity (control value criterion) [1],control value criterion [2],control value criterion [3]
"CON=Cc1ccc(-c2ccccc2NC(=O)c2cn(C)nc2C(F)F)cc1 [Comparative compound A, 3-(difluoromethyl)-N-(4′-((methoxyimino)methyl)-[1,1′-biphenyl]-2-yl)-1-methyl-1H-pyrazole-4-carboxamide]",0 (less than 9% control value),–,–
"CON=Cc1ccc(-c2ccccc2NC(=O)c2sccc2C)cc1 [Comparative compound B, N-(4′-((methoxyimino)methyl)-[1,1′-biphenyl]-2-yl)-3-methylthiophene-2-carboxamide]",1 (Control value 10-29%),–,–
"CON=Cc1ccc(-c2ccccc2NC(=O)c2cn(C)nc2C(F)F)cc1F [Comparative compound C, 3-(difluoromethyl)-N-(3′-fluoro-4′-((methoxyimino)methyl)-[1,1′-biphenyl]-2-yl)-1-methyl-1H-pyrazole-4-carboxamide]",0 (less than 9% control value),–,–
"CON=Cc1c(F)cc(-c2ccccc2NC(=O)c2c(C(F)F)nn(C)c2Cl)cc1F [Comparative compound D, 5-chloro-N-(3′,5′-difluoro-4′-((methoxyimino)methyl)-[1,1′-biphenyl]-2-yl)-3-(difluoromethyl)-1-methyl-1H-pyrazole-4-carboxamide]",1 (Control value 10-29%),–,–
"CON=Cc1c(F)cc(-c2ccccc2NC(=O)c2sccc2C)cc1F [Compound 1, N-(3′,5′-difluoro-4′-((methoxyimino)methyl)-[1,1′-biphenyl]-2-yl)-3-methylthiophene-2-carboxamide]",5 (Control value 90-100%),5 (Control value 90-100%),5 (Control value 90-100%)
